Experimental data: patent publication US20110152275A1, “AGENT FOR MAINTENANCE OF INDUCED REMISSION” (priority 2008, published 2011)

System: rat adjuvant-induced arthritis model
Assay: Rat adjuvant-induced arthritis model
Type: in vivo
Details: for infiltration of inflammatory cells into the joint after switching from MTX: MTX 0th to 10th day then Compound 1 1 mg/kg to 24th day; for overall effect on the arthritis (summary): summary of leg volume results, injected and non-injected legs
Protocol: There were intracutaneously injected 0.05 mL (0.6 mg/animal) each of a suspension of killed M. butyricum (12 mg/mL) in liquid paraffin into the back of the right hind legs of 8-week-old female rats of LEW/CrlCrlj line (available from Japan Charles-River Co., Ltd.) to thus induce the arthritis (the 0th day). Then 0.5 mL (per body weight of 100 g) each of an agent solution prepared using a 0.5% methyl cellulose (0.5% MC) was orally administered to each of the test animals. To the adjuvant-injected control animal group, there was administered only the 0.5% MC. Methotrexate (MTX, available from Sigma Company) (0.1 mg/kg) was administered to each test animal, once a day, during the term extending from the 0th day to the 10th day, every day. On or after the 11th day, (R)-2-amino-5-[2-chloro-4-(3-trifluoro methylphenylthio)phenyl]-2-methyl-1-pentanol hydrochloride (hereunder simply referred to as “Compound 1”) (1 mg/kg) was administered to the test animals, instead of methotrexate, once a day up to the 24th day every day. The evaluation of the arthritis was carried out according to the following procedures: The volumes of the right and left hind legs of each test animal were determined on the 0th, 8th, 11th, 14th, 18th, 21st and 25th days of the testing period using a volume-determining meter (MK-550 available from Muromachi Machine, Co., Ltd.) and then the rate of increase in the volume of the hind leg was determined for each of the right and left hind legs of each individual test animal. Then there was prepared a pathological specimen (stained with hematoxylin eosin) of a joint extending from the distal end of the shinbone to the tarsalia to evaluate the degree of the infiltration of inflammatory cells into the joint.
In case of the adjuvant-induced arthritis, acute inflammation, whose far advanced stage is observed on around 3rd day, is recognized on the adjuvant-injected leg and thereafter it is once degenerated. Then the systemic inflammation due to the systemic immunological abnormality is initiated on about 10th day and as a result, the onset of arthritis is observed on the non-injected leg in parallel with the injected leg.

[1] = adjuvant-injected leg, MTX 0.1 mg/kg orally once a day, 0th to 10th day, observed 8th to 11th day, FIG. 1

Row | SMILES | progress of the arthritis after switching from MTX (adjuvant-injected leg, MTX 0.1 mg/kg 0th to 10th day, then Compound 1 1 mg/kg orally once a day 11th to 24th day, FIG. 1) | infiltration of inflammatory cells into the joint after switching from MTX (injected leg, pathological specimen, observed 25th day, FIG. 3E) | onset of the arthritis after switching from MTX (non-injected leg, MTX 0.1 mg/kg 0th to 10th day, then Compound 1 1 mg/kg orally once a day 11th to 24th day, FIG. 2) | infiltration of inflammatory cells into the joint after switching from MTX (non-injected legs, pathological specimen) | overall effect on the arthritis (summary) | symptom of arthritis after stopping administration (adjuvant-injected leg, MTX 0th to 10th day, discontinued on and after 11th day, FIG. 1) | increase in the volume of the leg [1] | progress of the arthritis [1] | infiltration of inflammatory cells into the joint (injected leg, pathological specimen (hematoxylin eosin), MTX 0th to 10th day, observed 11th day, FIG. 3B) | infiltration of inflammatory cells into the joint after stopping administration (injected leg, pathological specimen, MTX 0th to 10th day then stopped, observed 25th day, FIG. 3D) | arthritis after stopping administration (non-injected leg, MTX 0th to 10th day, discontinued on and after 11th day, FIG. 2) | onset of the arthritis (non-injected leg, MTX 0.1 mg/kg orally 0th to 10th day, at the 11th day, FIG. 2)
1 | C[C@](N)(CO)CCCc1ccc(Sc2cccc(C(F)(F)F)c2)cc1Cl.Cl [Compound 1, (R)-2-amino-5-[2-chloro-4-(3-trifluoromethylphenylthio)phenyl]-2-methyl-1-pentanol hydrochloride] | the progress of the arthritis was inhibited | any infiltration of inflammatory cells into the joint was suppressed | the onset of the arthritis was suppressed | any infiltration of inflammatory cells into the joint was found to be suppressed | could maintain the MTX-suppressed condition of the symptom of the arthritis | – | – | – | – | – | – | –
2 | CN(Cc1cnc2nc(N)nc(N)c2n1)c1ccc(C(=O)N[C@@H](CCC(=O)O)C(=O)O)cc1 [MTX, Methotrexate] | – | – | – | – | could suppress the onset and progress of arthritis, but the arthritis was immediately advanced when stopping the administration thereof | the symptom of arthritis was again advanced | there was not observed any increase in the volume of the leg | the progress of the arthritis was found to be inhibited | any infiltration of inflammatory cells into the joint was suppressed | the conspicuous infiltration of inflammatory cells into the joint was recognized | the arthritis was initiated when stopping the administration of MTX | the onset of the arthritis in the non-injected leg was suppressed
